What was measured:
[1] = Cytotoxicity against mitoxantrone resistant […] cells expressing BCRP after 15 mins by fluorescence assay; type: functional, cell-based; conditions: Canis lupus familiaris, MDCK2, 0.25 h
SK-OV-3 = test: Cytotoxicity against human SKOV3 Cells after 48 hrs by Cell Titer Blue assay; type: functional, cell-based; conditions: SK-OV-3, 48 h
DU-145 = test: Anticancer activity against human DU145 cells; type: functional, cell-based
CT26 = test: Cytotoxicity against mouse CT26 cells; type: functional, cell-based
SGC-7901 [2] = test: Antiproliferative activity against human SGC7901 cells after 24 hrs by MTT assay; type: functional, cell-based; conditions: SGC-7901, 24 h
BGC-823 [3] = test: Antiproliferative activity against human BGC823 cells after 24 hrs by MTT assay; type: functional, cell-based; conditions: BGC-823, 24 h
HCT-116 = test: Cytotoxicity against human HCT116 Cells; type: functional, cell-based
SW-620 = test: Cytotoxicity against human SW620 Cells; type: functional, cell-based
PC-3 [4] = test: Anticancer activity against human PC3 cells; type: functional, cell-based
MGC-803 [5] = test: Antiproliferative activity against human MGC803 cells after 24 hrs by MTT assay; type: functional, cell-based; conditions: MGC-803, 24 h
HEp-2 = test: Cytotoxicity against human Hep2 Cells; type: functional, cell-based
L02 = test: Cytotoxicity against human HL-7702 cells; type: functional, cell-based
PANC-1 = test: Cytotoxicity against human PANC1 cells by MTT assay; type: functional, cell-based
NCI-H460 = test: Cytotoxicity against human H460 cells by MTT assay; type: functional, cell-based
MIA PaCa-2 = test: Cytotoxicity against human MIAPaCa2 cells by MTT assay; type: functional, cell-based
MCF7 [6] = test: Cytotoxicity against human MCF7 cells by MTT assay; type: functional, cell-based
HT-29 [7] = test: Cytotoxicity against human HT-29 cells by MTT assay; type: functional, cell-based
A549 [8] = test: Cytotoxicity against human A549 Cells by MTT assay; type: functional, cell-based
PC-3 [9] = test: Cytotoxicity against human PC3 cells by MTT assay; type: functional, cell-based
MCF7 [10] = test: Cytotoxicity against human MCF7 Cells after 48 hrs by MTS assay; type: functional, cell-based; conditions: MCF7, 48 h
[11] = Cytotoxicity against human CCD-1059SK Cells after 48 hrs by MTS assay; type: functional
AGS = test: Cytotoxicity against human AGS Cells by MTT assay; type: functional, cell-based
RWPE-1 = test: Cytotoxicity against human RWPE1 cells; type: functional, cell-based
PC-3 [12] = test: Cytotoxicity against human PC3 cells; type: functional, cell-based
NCI-H1299 = test: Cytotoxicity against human H1299 cells; type: functional, cell-based
BXPC-3 = test: Cytotoxicity against human BxPC3 cells; type: functional, cell-based
HT-29 [13] = test: Cytotoxicity against human HT-29 Cells; type: functional, cell-based
MCF7 [14] = test: Induction of apoptosis in human MCF7 cells; type: functional, cell-based
K562 = test: Cytotoxicity against human K562 Cells after 24 to 48 hrs by MTT assay; type: functional, cell-based
A549 [15] = test: Cytotoxicity against human A549 Cells after 24 to 48 hrs by MTT assay; type: functional, cell-based
SW480 = test: Cytotoxicity against human SW480 Cells after 24 to 48 hrs by MTT assay; type: functional, cell-based
HepG2 [16] = test: Cytotoxicity against human HepG2 Cells after 72 hrs by MTT assay; type: functional, cell-based; conditions: HepG2, 72 h
CHO-K1 = test: Cytotoxicity against […] Cells after 72 hrs by MTT assay; type: functional, cell-based; conditions: Cricetulus griseus, CHO-K1, 72 h
Caco-2 = test: Cytotoxicity against human Caco2 Cells after 72 hrs by MTT assay; type: functional, cell-based; conditions: Caco-2, 72 h
HT-29 [17] = test: Cytotoxicity against human HT-29 Cells after 72 hrs by MTT assay; type: functional, cell-based; conditions: HT-29, 72 h
EA.hy 926 = test: Cytotoxicity against human EAhy926 Cells after 72 hrs by MTT assay; type: functional, cell-based; conditions: EA.hy 926, 72 h
[18] = Cytotoxicity against human GBM4 Cells 48 hrs by MTS assay; type: functional
[19] = Cytotoxicity against human GBM6 Cells 48 hrs by MTS assay; type: functional; conditions: GBM6, 48 h
[20] = Cytotoxicity against human GBM2 Cells 48 hrs by MTS assay; type: functional; conditions: GBM2, 48 h
[21] = Cytotoxicity against human GBM3 Cells 48 hrs by MTS assay; type: functional; conditions: GBM3, 48 h
U-87 MG = test: Cytotoxicity against human U87MG Cells 48 hrs by MTS assay; type: functional, cell-based, U-87MG ATCC
U-251 = test: Cytotoxicity against human U251MG cells after 48 hrs by MTS assay; type: functional, cell-based; conditions: U-251, 48 h
[22] = Cytotoxicity against human GBM1 Cells 48 hrs by MTS assay; type: functional; conditions: GBM1, 48 h
[23] = Cytotoxicity against human GBM5 Cells 48 hrs by MTS assay; type: functional
U373 MG = test: Cytotoxicity against human U373MG Cells 48 hrs by MTS assay; type: functional, cell-based, U-373MG ATCC
HSC-4 = test: Cytotoxicity against human HSC4 cells; type: functional, cell-based
HL-60 = test: Cytotoxicity against human HL60 cells; type: functional, cell-based
HSC-2 = test: Cytotoxicity against human HSC2 cells; type: functional, cell-based
HSC-3 = test: Cytotoxicity against human HSC3 cells; type: functional, cell-based
HepG2 [24] = test: Cytotoxicity against human HepG2 Cells after 48 hrs by MTT assay; type: functional, cell-based; conditions: HepG2, 48 h
NIH3T3 = test: Cytotoxicity against mouse 3T3 Cells after 48 hrs by MTT assay; type: functional, cell-based; conditions: NIH3T3, 48 h
[25] = Cytotoxicity against human LX2 Cells after 48 hrs by MTT assay; type: functional; conditions: LX-2, 48 h
MCF7 [26] = test: Cytotoxicity against human MCF7 Cells after 48 hrs by MTT assay; type: functional, cell-based; conditions: MCF7, 48 h
SGC-7901 [27] = test: Cytotoxicity against human SGC7901 cells; type: functional, cell-based
GES1 = test: Cytotoxicity against human GES-1 cells; type: functional, cell-based
MGC-803 [28] = test: Cytotoxicity against human MGC803 cells; type: functional, cell-based
BGC-823 [29] = test: Cytotoxicity against human BGC823 cells; type: functional, cell-based
HeLa = test: Anticancer activity against human HeLa cells; type: functional, cell-based

Compound `COc1cc(/C=C2\CNC/C(=C\c3ccc(O)c(OC)c3)C2=O)ccc1O` has an IC50 [1] of 4300 nM.
`COc1ccc(/C=C/C(=O)/C=C(O)/C=C/c2ccc(OC)c(OC)c2)cc1OC` gave an IC50 (SK-OV-3) of 3510 nM.
For `COc1ccc(/C=C/C(=O)/C=C(O)/C=C/c2ccc(OC)c(O)c2)cc1O`, the IC50 (SK-OV-3) was 5580 nM.
For `COc1ccc(OC)c(/C=C2\CNC/C(=C\c3cc(OC)ccc3OC)C2=O)c1`, the IC50 [1] was 1200 nM.
With `COc1cc(/C=C/C(=O)/C=C/c2ccccc2[N+](=O)[O-])ccc1O` the IC50 (DU-145) was 3700 nM, the IC50 (CT26) was 1600 nM and the IC50 (SGC-7901 [2]) was 4300 nM. The IC50 (BGC-823 [3]) was 3300 nM, the IC50 (HCT-116) was 2200 nM and the IC50 (SW-620) was 2800 nM. For the same compound, the IC50 (PC-3 [4]) was 3500 nM and the IC50 (MGC-803 [5]) was 2700 nM.
`CCN1C/C(=C\c2cc(OC)c(OC)c(OC)c2)C(=O)/C(=C/c2cc(OC)c(OC)c(OC)c2)C1` showed an IC50 (HEp-2) of 16600 nM and an IC50 (L02) of 46800 nM.
In the case of `CN1CC(Cc2ccc(N(C)C)cc2[N+](=O)[O-])C(=NO)C(Cc2ccc(N(C)C)cc2[N+](=O)[O-])C1` (configuration not stated), the IC50 (PANC-1) is reported as 100 nM, the IC50 (NCI-H460) is reported as 80 nM and the IC50 (MIA PaCa-2) is reported as 70 nM. The IC50 (MCF7 [6]) was 90 nM, the IC50 (HT-29 [7]) was 50 nM and the IC50 (A549 [8]) was 90 nM. For the same compound, the IC50 (PC-3 [9]) was 80 nM.
For `COc1ccc(/C=N/NC(=O)/C=C/c2ccc(O)c(OC)c2)cc1`, the IC50 (MCF7 [10]) was 40500 nM and the IC50 [11] was 158000 nM.
With `COc1ccc(/C=C/C(=O)/C(CNc2ccc(S(N)(=O)=O)cc2)=C(O)/C=C/c2ccc(OC)cc2)cc1` the IC50 (AGS) was 11900 nM and the IC50 (A549 [8]) was 6250 nM.
Compound `COc1cc(/C=C2/C(=O)/C(=C/c3cc(OC)c(OC)c(OC)c3)c3ccccc32)cc(OC)c1OC` has an IC50 (RWPE-1) of 9120 nM, an IC50 (PC-3 [12]) of 640 nM and an IC50 (NCI-H1299) of 950 nM. For the same compound, the IC50 (BXPC-3) was 990 nM and the IC50 (HT-29 [13]) was 980 nM.
In the case of `COc1cc(/C=C/C(=O)C(=CC2CCN(C(=O)OC(C)(C)C)CC2)C(=O)/C=C/c2ccc(O)c(OC)c2)ccc1O`, the IC50 (MCF7 [14]) is reported as 1500 nM.
Work on `O=C(/C=C/c1c[nH]c2ccccc12)CC(=O)/C=C/c1c[nH]c2ccccc12` yielded an IC50 (K562) of 32000 to 34000 nM, an IC50 (A549 [15]) of 25000 to 27000 nM and an IC50 (SW480) of 7000 to 9000 nM.
`O=C(/C=C(O)/C=C/c1c[nH]c2ccccc12)/C=C/c1c[nH]c2ccccc12` showed an IC50 (HepG2 [16]) of 10000 nM, an IC50 (CHO-K1) of 7900 nM and an IC50 (Caco-2) of 3300 nM. For the same compound, the IC50 (HT-29 [17]) was 11500 nM and the IC50 (EA.hy 926) was 11700 nM.
For `C=CC(=O)NC(c1ccccc1)C(C(=O)/C=C/c1cccc(O)c1)C(=O)/C=C/c1cccc(O)c1` (configuration not stated), the IC50 [18] was 1260 nM, the IC50 [19] was 2320 nM and the IC50 [20] was 1430 nM. The IC50 [21] was 1450 nM, the IC50 (U-87 MG) was 380 nM and the IC50 (U-251) was 330 nM. The IC50 [22] was 870 nM, the IC50 [23] was 920 nM and the IC50 (U373 MG) was over 5000 nM.
Work on `CN1CCC(Cc2ccc(/C=C/C(=O)/C=C/c3ccc(CN4CCN(C)CC4)c(O)c3)cc2O)CC1` yielded an IC50 (HSC-4) of 3000 nM, an IC50 (HL-60) of 1800 nM and an IC50 (HSC-2) of 3900 nM. It also gave an IC50 (HSC-3) of 3000 nM.
With `COc1ccc(/C=C/C(=O)Oc2ccc(/C=C/C(=O)CC(=O)/C=C/c3ccc(OC(=O)/C=C/c4ccc(OC)c(O)c4)c(OC)c3)cc2OC)cc1O` the IC50 (HepG2 [24]) was 580 nM, the IC50 (NIH3T3) was 790 nM and the IC50 [25] was 630 nM. The IC50 (MCF7 [26]) was 510 nM.
Compound `COc1ccc(OC)c(/C=C2\CC/C(=C\c3ccc(O)c(OC)c3)C2=O)c1` has an IC50 (SGC-7901 [27]) of 3900 nM, an IC50 (GES1) of 27300 nM and an IC50 (MGC-803 [28]) of 13300 nM. It also gave an IC50 (BGC-823 [29]) of 4700 nM.
Compound `O=C(/C=C(O)/C=C/c1ccc(OCC(=O)NCC(=O)O)cc1)/C=C/c1ccc(OCC(=O)NCC(=O)O)cc1` has an IC50 (HeLa) of 500 nM.
Work on `COc1cc(/C=C/C(=O)/C=C(O)/C=C/c2ccc(OCC(=O)NCC(=O)O)c(OC)c2)ccc1OCC(=O)NCC(=O)O` yielded an IC50 (HeLa) of 500 nM.

Source: ChEMBL document CHEMBL4364241, “Developments in the anticancer activity of structurally modified curcumin: An up-to-date review” (Eur J Med Chem, 2019)
